Results on four compounds are retold here after publication PMC7284870, “Antimicrobial Peptides from Rat-Tailed Maggots of the Drone Fly Eristalis tenax Show Potent Activity against Multidrug-Resistant Gram-Negative Bacteria” (Microorganisms, 2020).

The subject of one series is E. coli RKI 6A-6. The series is described as follows: microbe, parasite or virus in culture. Type of series: cell-based, Escherichia coli. Put shortly: (§1)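 Broth microdilution in cation-adjusted Mueller–Hinton broth, inoculum 5 × 10^5 cells/mL from 18 h cultures; final peptide range 1024–0.03125 µg/mL, medium supplemented with 150 mM NaCl or 1.25 mM CaCl2. Growth scored visually and by OD600; MIC = lowest concentration without growth.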

The next series deals with K. pneumoniae RKI 268/15. Type of series: cell-based, Klebsiella pneumoniae. Here is the method:
(§2) The strains that were used in this study (Table 2 and Table S1) were cultivated at 37 °C in cation-adjusted Mueller–Hinton broth (CAMB) in Erlenmeyer flasks, or on the same medium with agar in Petri dishes. Exceptionally, Mycobacterium smegmatis was cultivated at 37 °C in brain heart infusion (BHI) medium that was supplemented with 1% Tween-80 in Erlenmeyer flasks, or on the same medium lacking detergent but with agar in Petri dishes. Strains listed with Robert Koch Institute (RKI) strain numbers are clinical isolates from the RKI strain collection originating from hospitalized patients in Germany. The remaining strains originated from the Sanofi strain collection and they were originally purchased from the American Type Culture Collection or the German Collection of Microorganisms and Cell Cultures. Meropenem/colistin-resistant strains were maintained, as described above, with the appropriate antibiotic added at levels below the minimal inhibitory concentration (MIC).
(§3) The MIC values were determined in 384-well microtiter plates with an assay volume of 20 µL. Immediately before each assay, the cultures of test organisms (bacteria grown for 18 h, Candida albicans and M. smegmatis grown for 48 h) were diluted with the appropriate medium to a density of 1 × 10^6 cells/mL (C. albicans), 1 × 10^5 cells/mL (M. smegmatis) or 5 × 10^5 cells per mL (other species). […] We transferred 2-µL aliquots from this dilution series to new 384-well microtiter plates while using a CyBio-Well 384-channel automated pipettor (Analytic Jena, Jena, Germany) and added 18 µL of the diluted suspension of each test species using a Viafill reagent dispenser (Integra), thus reducing the final peptide concentration 10-fold to the range 1024–0.03125 µg/mL. […] The growth of M. smegmatis was measured using the BacTiter-Glo luminescence test system (Promega, Madison, WI, USA). The growth of the other species was determined by visual inspection of the microtiter plate and turbidimetry based on the optical density at 600 nm (OD600). The MIC was defined as the peptide concentration at which no bacterial growth was observed. We supplemented the test medium with either 150 mM NaCl or 1.25 mM CaCl2 to represent monovalent and divalent cations to simulate physiological conditions.

Another series deals with K. pneumoniae RKI 68/16. The format is cell-based, Klebsiella pneumoniae. Here is the method: as §2, §3
The test system of series [1] is Enterobacter aerogenes clinical isolate (1). As to the kind of experiment: MIC, clinical isolates. The format is cell-based. Particulars: Klebsiella aerogenes; Table S1, RKI 1026/14-1. The method, then: as §2, §3
The subject of series [2] is Salmonella enterica clinical isolates (10). As to the kind of experiment: MIC, clinical isolates. The format is cell-based. The method, then: as §2, §3
Series [3] has as its system P. aeruginosa clinical isolates (2). Type of series: cell-based, Pseudomonas aeruginosa. Here is the method: as §2
as §3, with “The MIC was defined as the peptide concentration at which no bacterial growth was observed. We supplemented the test medium with either 150 mM NaCl or 1.25 mM CaCl2 to represent monovalent and divalent cations to simulate physiological conditions.” left out

Series [4] deals with Seratia fonticola clinical isolate (1). As to the kind of experiment: MIC, clinical isolates. Type of series: cell-based, Serratia fonticola. Particulars: Table S1, RKI 517/16. The method, then:
as §2
(§4) The MIC values were determined in 384-well microtiter plates with an assay volume of 20 µL. […] The growth of M. smegmatis was measured using the BacTiter-Glo luminescence test system (Promega, Madison, WI, USA). The growth of the other species was determined by visual inspection of the microtiter plate and turbidimetry based on the optical density at 600 nm (OD600). […]

Series [5] has as its system Gram-negative clinical isolates. Type of series: cell-based. Put shortly:
as §1

A further series relates to Canida albicans FH2173. The format is cell-based, Candida albicans. Particulars: CAMB, 24 h, 37 °C, n = 4. Put shortly: as §1
The test system of series [6] is Enterococcus faecium DSM 17050. The format is cell-based. Particulars: CAMB, 18 h, 37 °C, n = 4. Put shortly:
as §1

Series [7] relates to Listeria monocytogenes DSM 20600. The format is cell-based. Particulars: CAMB, 18 h, 37 °C, n = 4. Put shortly:
as §1

Series [8] deals with Proteus mirabilis DSM 4479. The format is cell-based. Conditions: CAMB, 18 h, 37 °C, n = 4. Put shortly:
as §1

A further series concerns human erythrocytes. The series is described as follows: Hemolysis of human erythrocytes. Particulars: hRBC in PBS, 3 h, 37 °C, A540; highest tested 1024 µg/mL. Here is the method:
Fresh citrated stabilized human whole blood was centrifuged at 500× g for 5 min. and the cell sediment was washed three times with phosphate buffered saline (PBS) before resuspending in PBS (50-fold the initial sample volume) to generate the human red blood cell (hRBC) suspension. The peptides were dissolved in sterile water at a concentration of 10.24 mg/mL and a dilution series was prepared in a 384-well microtiter plate, as above, to achieve the concentration range 10,240–0.3125 µg/mL in a volume of 50 µL. Triton X-100 (positive control) was diluted in sterile water to cover the concentration range 20–0.02%. We transferred 5-µL aliquots to new 384-well microtiter plates using the CyBio-Well 384-channel automated pipettor and added 45 µL of the hRBC suspension while using the Viafill reagent dispenser to achieve the final peptide concentration range 1024–0.031 µg/mL. After incubation at 37 °C. for 3 h, the plate was centrifuged and 20 μL of the supernatant from each well was transferred to a new microtiter plate. The quantity of released hemoglobin was determined by measuring the absorbance at 540 nm using a Lumistar plate reader (BMG Labtech, Ortenberg, Germany). The percent hemolysis was calculated by comparing to a control without peptide (no hemolysis) and a control with 2% Triton X-100 (100% hemolysis).

The next series deals with E. coli ATCC25922. As to the kind of experiment: Checkerboard assay EtDip with colistin. Type of series: cell-based, Escherichia coli. Particulars: CAMB, + 150 mM NaCl, + 1.25 mM CaCl2; FICindex ≤0.5 = synergy. Here is the method: (§5) The interactions between pairs of compounds were analyzed using checkerboard assays in a 384-well microtiter plate with an assay volume of 20 µL. Immediately before the test runs, the bacterial cultures were diluted in CAMB to a density of 5 × 10^5 cells/mL. The two compounds for combinatorial testing were arrayed as 10-fold concentrated serial dilutions with respect to the final concentration, vertically for one compound and horizontally for the other, in the same 384-well microplate. Subsequently, we transferred 2-µL aliquots to new 384-well microtiter plates, and growth inhibition in each well was determined, as described for the MIC values above. Fractional inhibitory concentration (FIC) and FICindex values for each combination were calculated using the following formulae, where a
(§6) FICindex ≤0.5 indicates synergy and a FICindex >4 indicates antagonism.
(§7) FIC for compound A = MIC of compound A in combination/MIC of compound A
(§8) FIC for compound B = MIC of compound B in combination/MIC of compound B

For a further series, the system named is A. baumannii ATCC19606. As to the kind of experiment: Checkerboard assay EtDip with colistin. The format is cell-based, Acinetobacter baumannii. Particulars: CAMB, + 150 mM NaCl, + 1.25 mM CaCl2; FICindex ≤0.5 = synergy. The method, then: as §5, §6, §7, §8
For a further series, the system named is reference strains. As to the kind of experiment: MIC, several reference strains. Conditions: reference strains of Table 2. Type of series: cell-based. Here is the method: as §2, §4

Converted amounts (≈) assume the structure as drawn. Where two headings read alike, the source gives them in different places. No end group written: not given here.

On to `C[C@@H](O)[C@H]1C(=O)N2C(C(=O)O)=C(S[C@@H]3CN[C@H](C(=O)N(C)C)C3)[C@H](C)[C@H]12` [MEM, meropenem], for which the MIC is at most 0.5 µg/mL with E. coli RKI 6A-6 (Escherichia coli, RKI6A6, Table S1, RKI 6A-6, read-out: MIC); 16 µg/mL (≈ 41.7 µM) with K. pneumoniae RKI 268/15 (Table S1, RKI 268/15); at most 0.5 µg/mL against K. pneumoniae RKI 68/16 (Table S1, RKI 68/16); 16 µg/mL (≈ 41.7 µM) in series [1]; at most 0.5 µg/mL in series [2] (Table S1, RKI 205/14); at most 0.5 µg/mL in series [2] (Table S1, RKI 206/14). Moreover, the MIC in [2] (Table S1, RKI 270/14) is reported as at most 0.5 µg/mL; in series [2] (Table S1, RKI 277/14) it was at most 0.5 µg/mL; in [2] (Table S1, RKI 419/14), at most 0.5 µg/mL; in [2] (Table S1, RKI 436/14), at most 0.5 µg/mL; in series [2] (Table S1, RKI 437/14) it was at most 0.5 µg/mL; in series [2] (Table S1, RKI 532/14-1) it was at most 0.5 µg/mL. In addition, the MIC in [2] (Table S1, RKI 533/14) was at most 0.5 µg/mL; in series [2] (Table S1, RKI 583/14) it was at most 0.5 µg/mL; in series [3] (Table S1, RKI 93/12) it was 16 µg/mL (≈ 41.7 µM); in series [3] (Table S1, RKI 628/16) it was 8 µg/mL (≈ 20.9 µM); in series [4] it was 32 µg/mL (≈ 83.4 µM).

Regarding “GFLKKIGKKLEGAVQRTRDATIQTIAVAQAAANVAATAKQ-NH2 [EtCec1-NH2]”, the MIC in [5] (18 h) is reported as at least 64 µg/mL; in [3] (clinical isolates (2, 18 h)), 128 µg/mL.

As for “GWLRDFGKRIERTGQNIRDATIQTIGIAQEAANVAATLK-NH2 [EtCec2-NH2]”, the MIC is over 1024 µg/mL with Canida albicans FH2173; 64 µg/mL with E. coli RKI 6A-6 (Table 4, CAMB, n=3); 64 µg/mL in the series with K. pneumoniae RKI 268/15 (Table 4, CAMB, n=3); 128 µg/mL with K. pneumoniae RKI 68/16 (Table 4, CAMB, n=3); over 1024 µg/mL in [6]; over 128 µg/mL in series [5] (isolates of M. morganii and S. fonticola). The MIC in series [7] and in [8] was over 1024 µg/mL each time. The compound further yielded a minimal hemolytic concentration in the series with human erythrocytes of 512 µg/mL.

As for “QFNMQGGGSPRQGFDVNANARFPIWQSQNARNSVHGTASYAQHLGGPYGNSRPNFGGGLQFT [EtDip, diptericin-like peptide of Eristalis tenax]”, the MIC (in the series on Canida albicans FH2173; in series [6]; in series [7]; in series [8]) was over 1024 µg/mL in each case. In the series with human erythrocytes, this compound displayed a minimal hemolytic concentration of over 1024 µg/mL. Moreover, the “interaction with colistin (FICindex)” value in the series with E. coli ATCC25922 and with A. baumannii ATCC19606 was “Synergistic interactions” in each case. For the same compound, in the series on reference strains, the “activity against the test strains” value is listed as “no activity”.
